Values quoted from earlier work, collected in patent publication US5840770A, “Method of killing tumor cells” (Hill Medical Corporation, priority 1997, dated 1998).
Each block holds one compound with its values, some of them ahead of it.

What was measured:
[1] = test system: low-grade non-Hodgkin's lymphoma, cutaneous T cell lymphoma, chronic myelogenous leukemia, Kaposi's sarcoma and especially hairy cell leukemia
[2] = normally
cholinergic receptors = conditions: in vivo
serum potassium = conditions: in vivo
[3] = test system: mouse and rat transplanted tumors; conditions: in vivo
[4] = not given; remark: listed apart in the source

Compound: Interferon-alpha
efficacy ([1]; listed lymphomas, leukemias, Kaposi's sarcoma): effective | effect on other tumors ([1]; tumors other than those listed): no effect

Compound: insulin
serum potassium concentration (serum potassium): lowers serum potassium concentration | effect on transplanted tumors [3]: no therapeutic effect

Compound: Glucagon: glucagon alone
effect on transplanted tumors [3]: arrested these cancers

More lines, now with the values ahead:

potassium intake excreted in the urine [2]: 80-90%
Compound: [K+] [potassium]

duration (cholinergic receptors): 4 to 8 h | onset (cholinergic receptors): 15 to 30 min
Compound: CC[C@@H]1C(=O)OC[C@@H]1Cc1cncn1C [Pilocarpine, pilocarpine]

infused glucose retained (0.8 gm/kg/hour): 95% | maximum infusion rate without producing glycosuria (in vivo): 0.5 gm/kg/hour | osmolarity ([4]; 5% dextrose): 253 mOsm/L | tonicity ([4]; 5% dextrose solution): isotonic
Compound: O=C[C@H](O)[C@@H](O)[C@H](O)[C@H](O)CO [dextrose]
